# Measurements from patent publication US10294202B2, “Pyrrolidinones as herbicides” (FMC Corporation, priority 2013, dated 2019).
# Tests used:
# giant foxtail = experiment: Test A pre-/postemergence herbicide test; type: in vivo, Setaria faberii
# How it was run: (§1)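 Both application timings used compounds in a non-phytotoxic solvent plus surfactant. Pre-emergence: soil sprayed directly after seeding into loam/sand. Post-emergence: foliage of 2–10 cm seedlings (1–2 leaves) sprayed. Injury rated ~10 days later, 0–100.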
# wheat = experiment: Test A pre-/postemergence herbicide test; type: in vivo, Triticum aestivum
# How it was run: as §1
# wheat (winter wheat) = experiment: Test C pre-/postemergence herbicide test; type: in vivo, Triticum aestivum
# How it was run: (§2)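 Herbicidal effect was judged by eye 13 to 15 days after treatment in the greenhouse, using a 0–100 scale against controls. Chemicals in a non-phytotoxic solvent with surfactant were sprayed onto planted loam/sand soil or onto plants 2 to 18 cm tall in a peat-based growing medium.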
# galium = experiment: Test C pre-/postemergence herbicide test; type: in vivo, Galium aparine
# How it was run: as §2
# foxtail, giant = experiment: Test C pre-/postemergence herbicide test; type: in vivo, Setaria faberii
# How it was run: as §2
# johnsongrass = experiment: Test C pre-/postemergence herbicide test; type: in vivo, Sorghum halepense
# How it was run: as §2
# lambsquarters = experiment: Test C pre-/postemergence herbicide test; type: in vivo, Chenopodium album
# How it was run: as §2
# morningglory = experiment: Test C pre-/postemergence herbicide test; type: in vivo, Ipomoea coccinea
# How it was run: as §2
# pigweed = experiment: Test C pre-/postemergence herbicide test; type: in vivo, Amaranthus retroflexus
# How it was run: as §2
# barnyardgrass = experiment: Test C pre-/postemergence herbicide test; type: in vivo, Echinochloa crus-galli
# How it was run: as §2
# [1] = Postemergence, 125 g ai/ha, 0 to 100 scale, 0 is no effect, 100 is complete control
# [2] = preemergence, 500 g ai/ha, 0 to 100 scale, 0 is no effect and 100 is complete control
# [3] = Postemergence, 31 g ai/ha, scale 0 to 100 (0 no effect, 100 complete control)
# [4] = Postemergence, 62 g ai/ha, scale 0 (no effect) to 100 (complete control)
# [5] = Postemergence, 125 g ai/ha, scale 0 to 100 (0 no effect, 100 complete control)
# [6] = Postemergence, 250 g ai/ha, scale 0 to 100 (0 no effect, 100 complete control)
# [7] = Preemergence, 31 g ai/ha, scale 0 to 100, 0 is no effect and 100 is complete control
# [8] = Preemergence, 62 g ai/ha, scale 0 to 100 (0 no effect, 100 complete control)
# [9] = Preemergence, 125 g ai/ha, scale 0 to 100 (0 no effect, 100 complete control)
# [10] = Postemergence, 500 g ai/ha, 0 to 100 scale (0 no effect, 100 complete control)
# [11] = Preemergence, 125 g ai/ha, 0 to 100 scale where 0 is no effect and 100 is complete control
smiles,measurement,setting,value
O=C1NCC(c2ccc(C(F)(F)F)cc2)C1C(=O)Nc1ccc(F)c(F)c1F (stereo not drawn) [Compound 232],"Plant response rating, Foxtail, Giant","giant foxtail; 125 g ai/ha, visual rating, 0 to 100 scale, 0 no effect, 100 complete control, approximately 10 days, preemergence",90
same,"Plant response rating, Foxtail, Giant",giant foxtail; [1],90
same,"Foxtail, Giant plant response rating (0 to 100 scale, 0 is no effect, 100 is complete control)","giant foxtail; Postemergence, 500 g ai/ha",90
same,"Plant response rating, Foxtail, Giant",giant foxtail; [2],90
same,"Plant response rating, Wheat",wheat; [1],30
same,"Wheat plant response rating (0 to 100 scale, 0 is no effect, 100 is complete control)","wheat; Postemergence, 500 g ai/ha",50
same,"Plant response rating, Wheat",wheat (winter wheat); [3],0
same,"Plant response rating, Wheat",wheat (winter wheat); [4],0
same,"Plant response rating, Wheat",wheat (winter wheat); [5],5
same,"Plant response rating, Wheat",wheat (winter wheat); [6],5
same,Wheat plant response rating,wheat (winter wheat); [7],0
same,Wheat plant response rating,wheat (winter wheat); [8],0
same,"Plant response rating, Wheat",wheat (winter wheat); [9],0
same,"Plant response rating (scale of 0 to 100), Wheat","wheat (winter wheat); Preemergence, 250 g ai/ha",5
same,"Plant response rating, Galium",galium; [3],75
same,"Plant response rating, Galium",galium; [4],80
same,"Plant response rating, Galium",galium; [5],80
same,"Plant response rating, Galium",galium; [6],80
same,Galium plant response rating,galium; [7],85
same,Galium plant response rating,galium; [8],85
same,"Plant response rating, Galium",galium; [9],90
same,"Plant response rating (scale of 0 to 100), Galium","galium; Preemergence, 250 g ai/ha",90
same,"Plant response rating, Foxtail, Giant","foxtail, giant; [3]",0
same,"Plant response rating, Foxtail, Giant","foxtail, giant; [4]",5
same,"Plant response rating, Foxtail, Giant","foxtail, giant; [5]",15
same,"Plant response rating, Foxtail, Giant","foxtail, giant; [6]",70
same,"Foxtail, Giant plant response rating","foxtail, giant; [7]",85
same,"Foxtail, Giant plant response rating","foxtail, giant; [8]",90
same,"Plant response rating, Foxtail, Giant","foxtail, giant; [9]",90
same,"Plant response rating (scale of 0 to 100), Foxtail, Giant","foxtail, giant; Preemergence, 250 g ai/ha",95
same,"Plant response rating, Johnsongrass",johnsongrass; [3],0
same,"Plant response rating, Johnsongrass",johnsongrass; [4],20
same,"Plant response rating, Johnsongrass",johnsongrass; [5],20
same,"Plant response rating, Johnsongrass",johnsongrass; [6],25
same,Johnsongrass plant response rating,johnsongrass; [7],0
same,Johnsongrass plant response rating,johnsongrass; [8],20
same,"Plant response rating, Johnsongrass",johnsongrass; [9],60
same,"Plant response rating (scale of 0 to 100), Johnsongrass","johnsongrass; Preemergence, 250 g ai/ha",70
same,"Plant response rating, Lambsquarters",lambsquarters; [3],80
same,"Plant response rating, Lambsquarters",lambsquarters; [4],85
same,"Plant response rating, Lambsquarters",lambsquarters; [5],85
same,"Plant response rating, Lambsquarters",lambsquarters; [6],85
same,Lambsquarters plant response rating,lambsquarters; [7],75
same,Lambsquarters plant response rating,lambsquarters; [8],85
same,"Plant response rating, Lambsquarters",lambsquarters; [9],90
same,"Plant response rating (scale of 0 to 100), Lambsquarters","lambsquarters; Preemergence, 250 g ai/ha",90
same,"Plant response rating, Morningglory",morningglory; [3],15
same,"Plant response rating, Morningglory",morningglory; [4],0
same,"Plant response rating, Morningglory",morningglory; [5],25
same,"Plant response rating, Morningglory",morningglory; [6],60
same,Morningglory plant response rating,morningglory; [7],0
same,Morningglory plant response rating,morningglory; [8],15
same,"Plant response rating, Morningglory",morningglory; [9],15
same,"Plant response rating (scale of 0 to 100), Morningglory","morningglory; Preemergence, 250 g ai/ha",20
same,"Plant response rating, Pigweed",pigweed; [3],80
same,"Plant response rating, Pigweed",pigweed; [4],85
same,"Plant response rating, Pigweed",pigweed; [5],85
same,"Plant response rating, Pigweed",pigweed; [6],85
same,Pigweed plant response rating,pigweed; [7],85
same,Pigweed plant response rating,pigweed; [8],85
same,"Plant response rating, Pigweed",pigweed; [9],85
same,"Plant response rating (scale of 0 to 100), Pigweed","pigweed; Preemergence, 250 g ai/ha",95
same,"Plant response rating, Barnyardgrass",barnyardgrass; [3],5
same,"Plant response rating, Barnyardgrass",barnyardgrass; [4],55
same,"Plant response rating, Barnyardgrass",barnyardgrass; [5],70
same,"Plant response rating, Barnyardgrass",barnyardgrass; [6],75
same,Barnyardgrass plant response rating,barnyardgrass; [7],85
same,"Plant response rating, Barnyardgrass","barnyardgrass; Preemergence, 62 g ai/ha, scale 0 to 100",85
same,"Plant response rating, Barnyardgrass",barnyardgrass; [9],95
same,"Plant response rating (scale of 0 to 100; 0 is no effect, 100 is complete control), Barnyardgrass","barnyardgrass; Preemergence, 250 g ai/ha",95
O=C1NCC(c2ccc(C(F)(F)F)nc2)C1C(=O)Nc1cccc(F)c1F (racemic) [Compound 263],"Plant response rating, Foxtail, Giant",giant foxtail; [1],80
same,"Plant response rating, Foxtail, Giant",giant foxtail; [10],90
same,"Plant response rating, Foxtail, Giant",giant foxtail; [11],90
same,"Plant response rating, Foxtail, Giant",giant foxtail; [2],100
same,"Plant response rating, Wheat",wheat; [10],60
same,"Plant response rating, Wheat",wheat; [11],0
same,"Plant response rating, Wheat",wheat; [2],60
same,Wheat plant response rating,wheat (winter wheat); [7],0
same,Wheat plant response rating,wheat (winter wheat); [8],10
same,"Plant response rating (scale of 0 to 100), Wheat","wheat (winter wheat); Preemergence, 250 g ai/ha",50
same,Galium plant response rating,galium; [7],70
same,Galium plant response rating,galium; [8],85
same,"Plant response rating, Galium",galium; [9],85
same,"Plant response rating (scale of 0 to 100), Galium","galium; Preemergence, 250 g ai/ha",90
same,"Foxtail, Giant plant response rating","foxtail, giant; [7]",65
same,"Foxtail, Giant plant response rating","foxtail, giant; [8]",95
same,"Plant response rating, Foxtail, Giant","foxtail, giant; [9]",98
same,"Plant response rating (scale of 0 to 100), Foxtail, Giant","foxtail, giant; Preemergence, 250 g ai/ha",98
same,Johnsongrass plant response rating,johnsongrass; [7],5
same,Johnsongrass plant response rating,johnsongrass; [8],0
same,"Plant response rating, Johnsongrass",johnsongrass; [9],0
same,"Plant response rating (scale of 0 to 100), Johnsongrass","johnsongrass; Preemergence, 250 g ai/ha",0
same,Lambsquarters plant response rating,lambsquarters; [7],50
same,Lambsquarters plant response rating,lambsquarters; [8],100
same,"Plant response rating, Lambsquarters",lambsquarters; [9],70
same,"Plant response rating (scale of 0 to 100), Lambsquarters","lambsquarters; Preemergence, 250 g ai/ha",80
same,Morningglory plant response rating,morningglory; [7],0
same,Morningglory plant response rating,morningglory; [8],0
same,"Plant response rating, Morningglory",morningglory; [9],20
same,"Plant response rating (scale of 0 to 100), Morningglory","morningglory; Preemergence, 250 g ai/ha",10
same,Pigweed plant response rating,pigweed; [7],70
same,Pigweed plant response rating,pigweed; [8],70
same,"Plant response rating, Pigweed",pigweed; [9],98
same,"Plant response rating (scale of 0 to 100), Pigweed","pigweed; Preemergence, 250 g ai/ha",95
same,Barnyardgrass plant response rating,barnyardgrass; [7],75
same,Barnyardgrass plant response rating,barnyardgrass; [8],90
same,"Plant response rating, Barnyardgrass",barnyardgrass; [9],95
same,"Plant response rating (scale of 0 to 100; 0 is no effect, 100 is complete control), Barnyardgrass","barnyardgrass; Preemergence, 250 g ai/ha",98
